Structures can show the parent of a compound that is named as a salt.
Target: T1, human M1 receptor (hCHRM1) (Homo sapiens, UniProt P11229)
T1 construct: expressed in transfected cells; host or cells: CHO-K1
T1 sequence (P11229 1-460): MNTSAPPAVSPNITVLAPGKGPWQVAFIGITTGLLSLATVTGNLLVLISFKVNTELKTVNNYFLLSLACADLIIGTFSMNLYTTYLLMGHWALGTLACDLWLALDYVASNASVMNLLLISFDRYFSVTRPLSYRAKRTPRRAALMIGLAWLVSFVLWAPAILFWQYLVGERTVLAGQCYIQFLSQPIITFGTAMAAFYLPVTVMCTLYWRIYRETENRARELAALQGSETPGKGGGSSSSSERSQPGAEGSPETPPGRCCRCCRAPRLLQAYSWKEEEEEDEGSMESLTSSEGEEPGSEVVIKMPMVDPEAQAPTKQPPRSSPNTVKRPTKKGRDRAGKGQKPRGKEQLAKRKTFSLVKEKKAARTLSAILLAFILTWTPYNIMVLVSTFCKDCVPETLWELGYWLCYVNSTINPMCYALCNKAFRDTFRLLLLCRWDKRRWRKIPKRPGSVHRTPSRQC
Experiment: Measurement of M1 receptor positive allosteric modulator (M1PAM) activity, calcium fluorescence (FLIPRtetra) in CHO-K1 cells in the presence of acetylcholine at EC20
Type: cell-based
Details: in the presence of acetylcholine at EC20 (final 0.6 nM), CHO-K1 cells expressing hCHRM1; for EC50: inflection point of M1PAM activity, read-out: IP value; for activity (%) at 10 μM: test compound 10 μM
Experimental: Measurement of M1 Receptor Positive Allosteric Modulator (M1PAM) Activity
The activity of a test compound in the presence of acetylcholine at EC20 concentration (final concentration 0.6 nM), which affords an action corresponding to 20% of the maximum activity, was measured as PAM activity. The method is as follows. CHO-K1 cells forcibly expressing a human M1 receptor (hCHRM1) were plated on a 384-well black clear bottom plate (BD Falcon) at 5,000 cells/well, and cultured in an incubator at 37° C., 5% CO2 for 1 day. The medium in the cell plate was removed, and assay buffer A (Recording medium (DOJINDO LABORATORIES), 0.1% BSA (Wako Pure Chemical Industries, Ltd.), 2.5 μg/mL Fluo-4 AM (DOJINDO LABORATORIES), 0.08% Pluronic F127 (DOJINDO LABORATORIES), 1.25 mM probenecid (DOJINDO LABORATORIES)) containing a calcium indicator was added at 30 μL/well. The cells were left standing in the incubator at 37° C., 5% CO2 for 30 min, and further left standing at room temperature for 30 min. A test compound prepared by diluting with assay buffer B (HBSS (Invitrogen), 20 mM HEPES (Invitrogen), 0.1% BSA) containing 2.4 nM acetylcholine was added at 10 μL/well, and the fluorescence was measured by FLIPRtetra (Molecular Devices) for 1 min every 1 second. With the definition that the amount of change in the fluorescence on addition of acetylcholine (final concentration 1 μM) is 100% and that on addition of DMSO instead of a test compound is 0%, the activity (%) of the test compound and the inflection point in the concentration-dependent curve of the test compound were calculated as IP values.

SMILES	EC50 [nM]	activity (%) at 10 μM [%]	activity (%) at 10 μM (hydrochloride) [%]
O=C1c2c(ccnc2O[C@H]2CCCC[C@@H]2O)CN1Cc1cccs1 (relative stereo) [Example 399, 4-((trans-2-hydroxycyclohexyl)oxy)-2-(2-thienylmethyl)-1,2-dihydro-3H-pyrrolo[3,4-c]pyridin-3-one]	97	94	
O=C1c2c(ccnc2O[C@H]2CCCC[C@@H]2O)CN1Cc1ccc(Br)s1 (relative stereo) [Example 400, 2-((5-bromo-2-thienyl)methyl)-4-((trans-2-hydroxycyclohexyl)oxy)-1,2-dihydro-3H-pyrrolo[3,4-c]pyridin-3-one]	56	88	
O=C1c2c(ccnc2O[C@H]2CCCC[C@@H]2O)CN1Cc1ccc(Cl)s1 (relative stereo) [Example 401, 2-((5-chloro-2-thienyl)methyl)-4-((trans-2-hydroxycyclohexyl)oxy)-1,2-dihydro-3H-pyrrolo[3,4-c]pyridin-3-one]	48	92	
Cc1nn(C)cc1-c1ccc(CN2Cc3ccnc(O[C@H]4CCCC[C@@H]4O)c3C2=O)s1 (relative stereo) [Example 402, 2-((5-(1,3-dimethyl-1H-pyrazol-4-yl)-2-thienyl)methyl)-4-((trans-2-hydroxycyclohexyl)oxy)-1,2-dihydro-3H-pyrrolo[3,4-c]pyridin-3-one]	4.6	104	
Cn1ccc(-c2ccc(CN3Cc4ccnc(OCC5CCCO5)c4C3=O)cc2)n1 (single isomer, unassigned) [Example 245, 2-(4-(1-methyl-1H-pyrazol-3-yl)benzyl)-4-((tetrahydrofuran-2-yl)methoxy)-1,2-dihydro-3H-pyrrolo[3,4-c]pyridin-3-one]	57	101	
Cn1ccc(-c2ccc(CN3Cc4ccnc(OCC5CCCO5)c4C3=O)cc2)n1 (single isomer, unassigned) [Example 246, 2-(4-(1-methyl-1H-pyrazol-3-yl)benzyl)-4-((tetrahydrofuran-2-yl)methoxy)-1,2-dihydro-3H-pyrrolo[3,4-c]pyridin-3-one]	9.4	100	
Cc1nn(C)cc1-c1ccc(CN2Cc3cccc(O[C@@H]4CCOC[C@H]4O)c3C2=O)cc1 (single isomer, unassigned) [Example 248, 1,5-anhydro-2-deoxy-3-O-(2-(4-(1,3-dimethyl-1H-pyrazol-4-yl)benzyl)-3-oxo-2,3-dihydro-1H-isoindol-4-yl)-threo-pentitol]	3	117	
Cc1nn(C)cc1-c1ccc(CN2Cc3ccnc(O[C@@H]4CCC[C@H]4O)c3C2=O)cc1 (single isomer, unassigned) [Example 255, 2-(4-(1,3-dimethyl-1H-pyrazol-4-yl)benzyl)-4-((trans-2-hydroxycyclopentyl)oxy)-1,2-dihydro-3H-pyrrolo[3,4-c]pyridin-3-one]	48	106	
Cc1nn(C)cc1-c1ccc(CN2Cc3ccnc(O[C@@H]4CCC[C@H]4O)c3C2=O)cc1 (single isomer, unassigned) [Example 256, 2-(4-(1,3-dimethyl-1H-pyrazol-4-yl)benzyl)-4-((trans-2-hydroxycyclopentyl)oxy)-1,2-dihydro-3H-pyrrolo[3,4-c]pyridin-3-one]	4	101	
O=C1c2c(cccc2O[C@@H]2CCOC[C@H]2O)CN1Cc1ccc(Br)cc1 (single isomer, unassigned) [Example 268, 1,5-anhydro-3-O-(2-(4-bromobenzyl)-3-oxo-2,3-dihydro-1H-isoindol-4-yl)-2-deoxy-threo-pentitol]	39	103	
O=C1c2c(cccc2O[C@@H]2COCC[C@H]2O)CN1Cc1ccc(Br)cc1 (single isomer, unassigned) [Example 271, 1,5-anhydro-2-O-(2-(4-bromobenzyl)-3-oxo-2,3-dihydro-1H-isoindol-4-yl)-4-deoxy-threo-pentitol]	130	97	
CCC(CO)Oc1nccc2c1C(=O)N(Cc1ccc(-c3cn(C)nc3C)cc1)C2 (single isomer, unassigned) [Example 274, 2-(4-(1,3-dimethyl-1H-pyrazol-4-yl)benzyl)-4-((l-hydroxybutan-2-yl)oxy)-1,2-dihydro-3H-pyrrolo[3,4-c]pyridin-3-one]	12	102	
CCC(CO)Oc1nccc2c1C(=O)N(Cc1ccc(-c3cn(C)nc3C)cc1)C2 (single isomer, unassigned) [Example 275, 2-(4-(1,3-dimethyl-1H-pyrazol-4-yl)benzyl)-4-((l-hydroxybutan-2-yl)oxy)-1,2-dihydro-3H-pyrrolo[3,4-c]pyridin-3-one]	76	104	
CCC(O)COc1nccc2c1C(=O)N(Cc1ccc(-c3cn(C)nc3C)cc1)C2 (single isomer, unassigned) [Example 276, 2-(4-(1,3-dimethyl-1H-pyrazol-4-yl)benzyl)-4-(2-hydroxybutoxy)-1,2-dihydro-3H-pyrrolo[3,4-c]pyridin-3-one]	3.6	99	
CCC(O)COc1nccc2c1C(=O)N(Cc1ccc(-c3cn(C)nc3C)cc1)C2 (single isomer, unassigned) [Example 277, 2-(4-(1,3-dimethyl-1H-pyrazol-4-yl)benzyl)-4-(2-hydroxybutoxy)-1,2-dihydro-3H-pyrrolo[3,4-c]pyridin-3-one]	42	96	

Next, values leading:

EC50 [nM]	activity (%) at 10 μM [%]	activity (%) at 10 μM (hydrochloride) [%]	SMILES
4.4	94		O=C1c2c(cccc2O[C@H]2CCCC[C@@H]2O)CN1Cc1ccc(-c2ccnnc2)cc1 (relative stereo) [Example 352, 7-((trans-2-hydroxycyclohexyl)oxy)-2-(4-(pyridazin-4-yl)benzyl)isoindolin-1-one]
4.3	95		Cc1cc(-c2ccc(CN3Cc4cccc(O[C@H]5CCCC[C@@H]5O)c4C3=O)cc2)cnn1 (relative stereo) [Example 355, 7-((trans-2-hydroxycyclohexyl)oxy)-2-(4-(6-methylpyridazin-4-yl)benzyl)isoindolin-1-one]
8.2	110		Cc1cc(-c2ccc(CN3Cc4ccnc(O[C@@H]5CCC[C@H]5O)c4C3=O)cc2)ccn1 (single isomer, unassigned) [Example 242, 4-((trans-2-hydroxycyclopentyl)oxy)-2-(4-(2-methylpyridin-4-yl)benzyl)-1,2-dihydro-3H-pyrrolo[3,4-c]pyridin-3-one]
37	104		Cc1cc(-c2ccc(CN3Cc4ccnc(O[C@@H]5CCC[C@H]5O)c4C3=O)cc2)ccn1 (single isomer, unassigned) [Example 243, 4-((trans-2-hydroxycyclopentyl)oxy)-2-(4-(2-methylpyridin-4-yl)benzyl)-1,2-dihydro-3H-pyrrolo[3,4-c]pyridin-3-one]
5.7		107	Cc1cc(-c2ccc(CN3Cc4ccnc(O[C@@H]5CCC[C@H]5O)c4C3=O)cc2)ccn1 (single isomer, unassigned) [Example 258, 4-((trans-2-hydroxycyclopentyl)oxy)-2-(4-(2-methylpyridin-4-yl)benzyl)-1,2-dihydro-3H-pyrrolo[3,4-c]pyridin-3-one hydrochloride]
85		109	Cc1cc(-c2ccc(CN3Cc4ccnc(O[C@@H]5CCC[C@H]5O)c4C3=O)cc2)ccn1 (single isomer, unassigned) [Example 259, 4-((trans-2-hydroxycyclopentyl)oxy)-2-(4-(2-methylpyridin-4-yl)benzyl)-1,2-dihydro-3H-pyrrolo[3,4-c]pyridin-3-one hydrochloride]
48	101		O=C1c2c(cccc2O[C@@H]2CCOC[C@H]2O)CN1Cc1ccc(Cl)cc1 (single isomer, unassigned) [Example 292, 1,5-anhydro-3-O-(2-(4-chlorobenzyl)-3-oxo-2,3-dihydro-1H-isoindol-4-yl)-2-deoxy-threo-pentitol]

From patent US9777005B2 (Takeda Pharmaceutical Company Limited, priority 2012, dated 2017)
